{"source": "paper PMC8224775", "about": "“Five Tetramic Acid Derivatives Isolated from the Iranian Fungus Colpoma quercinum CCTU A372” (Biomolecules, 2021)", "key": {"[1]": {"tested_on": "Acinetobacter baumanii DSM 30008", "test": "Antimicrobial serial dilution assay (MIC)", "type": "cell-based", "details": "Acinetobacter baumannii, DSM30008, serial dilution 67 to 0.5 µg/mL, overnight, read-out: MIC", "protocol": "(§1) Antimicrobial activity was determined by our established protocol, according to Becker et al.. In general, all of the pure compounds were dissolved in MeOH with a concentration of 1 mg/mL. Assessment of the antimicrobial activity was determined using the serial dilution assay method to calculate the minimum inhibitory concentration (MIC). In this method, the compounds were diluted in a range between 67 and 0.5 µg/mL in 96 well-plate and incubated with the test organism overnight. The next day, growth of the test organisms was visually observed, and MIC was determined in the lowest concentration where a clear zone (no growth of test organism) was observed. In our attempt for novel anti-infective compounds, an established standard protocol using various organisms representing a broad spectrum of pathogens of clinical interest, as well as sensitive indicator strains, was used (bacteria: Bacillus subtilis DSM 10, Staphylococcus aureus DSM 346, Acinetobacter baumanii DSM 30008, Chromobacterium violaceum DSM 30191, Escherichia coli DSM 1116 and Pseudomonas aeruginosa PA14; mycobacteria: Mycobacterium smegmatis ATCC 700084 and fungi: Candida albicans DSM 1665, Schizosaccharomyces pombe DSM 70572, Mucor hiemalis DSM 2656, Wickerhamomyces anomala DSM 6766 and Rhodotorula glutinis DSM 10134). Methanol as a solvent to dissolve the pure compounds was used as the negative control. Oxytetracycline, ciprofloxacin, gentamycin, and kanamycin were used as positive controls against bacteria, whereas nystatin was used against fungi. A detailed experimental procedure can be found in the SI.\n(§2) Protocol: Antimicrobial Activity Assay\n(§3) The assay was conducted as a minimum inhibitory concentration (MIC) assay in 96-well round- bottom microtiter plates using the parameters summarized in Table S1 and as already described in [S1]. Stocks of the test organisms were generated by growing the organisms overnight in 50 mL shaking flasks filled with 25 mL of the growth medium at 140r p m ( media and temperatures see Table S1). If the organisms were well grown the next day, which was checked by the occurrence of an optical density (OD) […] of the suspension (OD600 nm for bacteria, OD548 nm for fungi and M. smegmatis), aliquots of these were stored in 1.5 mL reaction tubes in a freezer at −80 °C for up to 12 months. Upon use, aliquots were unthawed and the OD of the suspension measured and adjusted by diluting with the respective growth medium. OD600 nm was adjusted to 0.01 and OD548 nm to 0.1. Subsequently, 150 μ L of the adj usted suspensions were added to all wells of a 96-well microtiter plate (one test organism per plate). In row A, additional 130 μ L of suspensions plus 20 μ L of the test compounds (1 mg/mL) and the controls (one compound/column) were added. MeOH was used as negative controls, while different positive controls (references) were used for the test organisms (see Table S1). Then, starting from row A, 150 μ L of t he suspension were transferred to the next row, the contents thoroughly mixed, and 150 μ L transferred to the following row. The remaining 150 μ L after row H were discarded. […]\n(§4) of the test compounds, ranging from 66.7 μg/mL in row A to 0.52 μ g/mL in row H. The microtiter plates were then incubated overnight on a microplate shaker at 800 rpm at 30 or 37 °C (see Table S1) and were visually evaluated the next day. The MIC is defined as the lowest concentration where no growth of the test organism (clear zone) was observed. A lower MIC thus corresponds to a higher antimicrobial activity of the test compound.\n(§5) Table S1: MIC assay experiment parameters test organism strain No growth incubation positive control […]\n(§6) Candidaa lbicans DSM1665 MYC3 30 nystatin 1.0mg/ mL\n(§7) Schizosaccharomyces DSM70572 MYC3 30 nystatin 1.0mg/ mL\n(§8) Mucor hiemalis DSM2656 MYC3 30 nystatin 1.0mg/ mL\n(§9) Wickerhamomyces DSM6766 MYC3 30 nystatin 1.0mg/ mL\n(§10) Rhodotorula glutinis DSM10134 MYC3 30 nystatin 1.0mg/ mL\n(§11) 1 MHB: Müller-Hinton Broth (SN X927.1, CarlRoth GmbH, Karlsruhe, Germany) […]"}, "[2]": {"tested_on": "squamous cell carcinoma A-431", "test": "5-day MTT cytotoxicity assay", "type": "cell-based, human", "details": "Homo sapiens, A-431, 120 h", "protocol": "(§12) Cytotoxicity of compounds 1‒5 was initially determined against two cancer cell lines (mouse fibroblasts L-929 and human endocervical adenocarcinoma KB-3.1) by using a 5-day MTT assay according to an established procedure.\n(§13) In 96-well flat-bottom microtiter plates, cell lines with serial dilution of the test compounds (final range: 37 to 0.6 × 10^−3 µg/mL) were incubated for five days. After five days, the cells were dyed using 3-(4,5-dimethyl-2-thiazolyl)-2,5-diphenyl-2H-tetrazolium bromide (MTT), which is only converted to its purple formazan derivative by living cells. The half-maximum inhibitory concentration (IC50 in µM) was calculated via the colorimetric method in a microplate reader using absorption at 595 nm. In addition, when an inhibition with an IC50 < 50 µM was observed, other cell lines were subjected to the test compounds to evaluate their further cytotoxicity: PC-3 (human prostate adenocarcinoma), SK-OV-3 (human ovary adenocarcinoma), MCF-7 (human breast adenocarcinoma), A-431 (human squamous carcinoma), and A549 (human lung carcinoma). A detailed procedure, including the colorimetric method to determine the cell viability, can be found in the SI.\n(§14) Protocol: Cytotoxicity Assay\n(§15) The assay was co nducted in 9 6-well flat -botto m microtiter plates using the parameters summarised in T able S2 and as described in [S2]. Cell l ines L-929 and KB-3.1 were incubated at 37 °C under 10 % CO2 in Gibco™ DMEM medium (T her mo Fisher Scientific, Waltham, M A, USA) supplemented with 10 % FBS. A microtiter plate was filled wit h 120 μ L o f this suspensio n (50,000/mL) in each well. Seperatel y, a nother microti ter plate wa s filled wit h 100 μL of gro wth medium in each well. Then, 50 μ L of the test compound solutions (1 mg/mL) were given to wells of the first column in two replicates (one compound per row). Cells without additives and MeOH were used as nega tive controls. Starting from the first column, 50 μ L of the solutions were gradually transferred to the next column, the contents thoroughly mixed, and 50 μL transferred to the following column. This created a serial dilution of the test compounds ranging from 333 μ g/mL to 1.9×10-3 μg/ mL. T he re mai ni ng 50 μ L after column twelve were discarded. From this microtiter plate, 60 μ L of the solutions fro m 111 μ g/mL to 1.9×10-3 μg/mL we r e give n to t he firs t p late co ntai ni ng 1 2 0 μ L of the cell suspensions (i.e. the highest co ncentration 333 μ g/ mL wa s no t used). T his resul ted in fi nal compo und concentratio ns rangi ng fro m 37 μ g/mL to 0.6×10-3 μg/ mL. After 5 days o f incubatio n under the aforementioned incubatio n conditions, the half maximu m inhibitory co ncentrations (IC50) were deter mined using a colorimetric tetrazolium d ye MT T assa y [S3]. For this, 20 μ L of a 5 mg/mL solution of 3-(4,5-dimethyl-2 -thiazolyl) -2,5-diphenyl-2H-tetrazolium br omide (MTT) were added to each well and incubated for two hours at 37 °C. T hen, the microtiter plate was ce ntrifuged (3,000 rpm, 5 min) and the supernatant removed by holding the plate upside-down and gentle shaking. Afterwards, the wells were washed using 100 μ L of phosphate buffered saline (PBS). T he plate was a gain ce ntrifuged a nd the supernata nt re mo ved as described before.\n(§16) T hen, 1 0 0 μ L of an isopropanol:HCl solution (1L isopropanol+4 mL HCl 37 % w/v) were added to the wells. After incubating for 10 min at ambient temperature, the absorption of the wells at 595 nm was measured with an Infinite® 200 Pro microplate reader (TECAN, Männedorf, Schweiz). The absorption values of the cells without additives were averaged and set to 100 % cell viability. Then, the means of absorption of the two compound replicates were set in relation to the blank media. T hese percentage values were plotted against the concentratio n range (37 μ g/mL to 0.6×10−3 μg/ mL). T he IC50 value was r ead fro m the plot (in μ g/ mL) a nd the uni ts conversed […]\nto μM. […]"}, "[3]": {"tested_on": "ovarian carcinoma SK-OV-3", "test": "5-day MTT cytotoxicity assay", "type": "cell-based, human", "details": "Homo sapiens, SK-OV-3, 120 h", "protocol": "as §12, §13, §14, §15, §16\nto μM. […]"}, "[4]": {"tested_on": "endocervical adenocarcinoma KB-3.1", "test": "5-day MTT cytotoxicity assay", "type": "cell-based, human", "details": "Homo sapiens, KB 3-1, 120 h", "protocol": "as §12, §13, §14, §15, §16\nto μM. […]"}, "[5]": {"tested_on": "human lung carcinoma A-549", "test": "5-day MTT cytotoxicity assay", "type": "cell-based", "details": "A549, 120 h", "protocol": "as §12, §13, §14, §15, §16\nto μM. […]"}, "[6]": {"tested_on": "human breast adenocarcinoma MCF-7", "test": "5-day MTT cytotoxicity assay", "type": "cell-based", "details": "Homo sapiens, MCF7, 120 h", "protocol": "as §12, §13, §14, §15, §16\nto μM. […]"}, "[7]": {"tested_on": "human prostate cancer PC-3", "test": "5-day MTT cytotoxicity assay", "type": "cell-based", "details": "120 h", "protocol": "as §12, §13, §14, §15, §16\nto μM. […]"}, "mouse fibroblast L-929": {"tested_on": "mouse fibroblast L-929", "test": "5-day MTT cytotoxicity assay", "type": "cell-based", "details": "Mus musculus, L929, 120 h", "protocol": "as §12, §13, §14, §15, §16\nto μM. […]"}, "Pichia anomala DSM 6766": {"tested_on": "Pichia anomala DSM 6766", "test": "Antimicrobial serial dilution assay (MIC)", "type": "cell-based", "details": "serial dilution 67 to 0.5 µg/mL, overnight", "protocol": "as §1, §2, §3, §4, §5, §6, §7, §8, §9, §10, §11"}, "[8]": {"tested_on": "Rhodotorula glutinis DSM 10134", "test": "Antimicrobial serial dilution assay (MIC)", "type": "cell-based", "details": "serial dilution 67 to 0.5 µg/mL, overnight", "protocol": "as §1, §2, §3, §4, §5, §6, §7, §8, §9, §10, §11"}, "Mucor hiemalis DSM 2656": {"tested_on": "Mucor hiemalis DSM 2656", "test": "Antimicrobial serial dilution assay (MIC)", "type": "cell-based", "details": "serial dilution 67 to 0.5 µg/mL, overnight", "protocol": "as §1, §2, §3, §4, §5, §6, §7, §8, §9, §10, §11"}, "[9]": {"tested_on": "Staphylococcus aureus DSM 346", "test": "Antimicrobial serial dilution assay (MIC)", "type": "cell-based", "details": "DSM346, serial dilution 67 to 0.5 µg/mL, overnight, read-out: MIC", "protocol": "as §1, §2, §3\nas §4, with “A lower MIC thus corresponds to a higher antimicrobial activity of the test compound.” left out"}, "Bacillus subtilis DSM 10": {"tested_on": "Bacillus subtilis DSM 10", "test": "Antimicrobial serial dilution assay (MIC)", "type": "cell-based", "details": "DSM10, serial dilution 67 to 0.5 µg/mL, overnight, read-out: MIC", "protocol": "as §1, §2, §3, §4\nTable S1: MIC assay experiment parameters test organism strain No growth incubation positive control\nBacillus subtilis DSM10 MHB1 30 oxytetracyclin 1.0mg/ mL […]\nas §6, §7, §8, §9\n(§17) Rhodotorula glutinis DSM10134 MYC3 30 nystatin 1.0mg/ mL […]"}, "Escherichia coli": {"tested_on": "Escherichia coli", "test": "Antimicrobial serial dilution assay (MIC)", "type": "cell-based", "details": "serial dilution 67 to 0.5 µg/mL, overnight, read-out: MIC", "protocol": "as §1, §2, §3, §4, §5\nEscherichia coli DSM1116 MHB1 37 oxytetracyclin 1.0mg/ mL […]\nas §6, §7, §8, §9, §17"}}, "note": "Marks after values point to notes of the source that are not given here."}
{"smiles": "O=C(O)c1cn(C2CC2)c2cc(N3CCNCC3)c(F)cc2c1=O", "note": "[ciprofloxacin, reference compound]", "values": [{"measurement": "MIC", "setting": "[1]", "value": 0.26, "unit": "µg/mL"}]}
{"smiles": "C/C(=C\\c1csc(C)n1)[C@@H]1C[C@@H]2O[C@]2(C)CCC[C@H](C)[C@H](O)[C@@H](C)C(=O)C(C)(C)[C@@H](O)CC(=O)O1", "note": "[epothilone B, reference compound]", "values": [{"measurement": "IC50", "setting": "[2]", "value": 0.083, "unit": "nM"}, {"measurement": "IC50", "setting": "[3]", "value": 0.24, "unit": "nM"}, {"measurement": "IC50", "setting": "[4]", "value": 0.053, "unit": "nM"}, {"measurement": "IC50", "setting": "[5]", "value": 0.055, "unit": "nM"}, {"measurement": "IC50", "setting": "[6]", "value": 0.071, "unit": "nM"}, {"measurement": "IC50", "setting": "[7]", "value": 0.27, "unit": "nM"}, {"measurement": "IC50", "setting": "mouse fibroblast L-929", "value": 0.83, "unit": "nM"}]}
{"smiles": "C[C@@H]1[C@H](O)[C@@H](C)/C=C/C=C/CC/C=C/C=C/C=C/C=C/C(O[C@H]2O[C@H](C)[C@@H](O)[C@H](N)[C@@H]2O)CC2O[C@](O)(CC(O)C(O)CCC(O)CC(O)CC(O)CC(=O)O[C@H]1C)CC(O)C2C(=O)O", "note": "(some centres unmarked) [nystatin, reference compound]", "values": [{"measurement": "MIC", "setting": "Pichia anomala DSM 6766", "value": "4.2 ^b µg/mL"}, {"measurement": "MIC", "setting": "[8]", "value": "1.0 ^b µg/mL"}, {"measurement": "MIC", "setting": "Mucor hiemalis DSM 2656", "value": "4.2 ^b µg/mL"}]}
{"smiles": "CN(C)[C@@H]1C(O)=C(C(N)=O)C(=O)[C@@]2(O)C(O)=C3C(=O)c4c(O)cccc4[C@@](C)(O)[C@H]3[C@H](O)[C@@H]12", "note": "[oxytetracycline, reference compound]", "values": [{"measurement": "MIC", "setting": "[9]", "value": 1.7, "unit": "µg/mL"}, {"measurement": "MIC", "setting": "Bacillus subtilis DSM 10", "value": 8.3, "unit": "µg/mL"}, {"measurement": "MIC", "setting": "Escherichia coli", "value": 1.7, "unit": "µg/mL"}]}
